We go through 13 compounds from ChEMBL document CHEMBL1143461, “Trifluoroethylamines as amide isosteres in inhibitors of cathepsin K” (Bioorg Med Chem Lett, 2005).

Assay [1] concerns the target T1, Cathepsin K (Homo sapiens, UniProt P43235). Put plainly: Inhibitory activity against cathepsin K using humanized rabbit enzyme. Also on record: species or system Oryctolagus cuniculus.
Assay [2] addresses T2, Cathepsin K (Homo sapiens) (UniProt P43235).
T2 sequence (whole entry): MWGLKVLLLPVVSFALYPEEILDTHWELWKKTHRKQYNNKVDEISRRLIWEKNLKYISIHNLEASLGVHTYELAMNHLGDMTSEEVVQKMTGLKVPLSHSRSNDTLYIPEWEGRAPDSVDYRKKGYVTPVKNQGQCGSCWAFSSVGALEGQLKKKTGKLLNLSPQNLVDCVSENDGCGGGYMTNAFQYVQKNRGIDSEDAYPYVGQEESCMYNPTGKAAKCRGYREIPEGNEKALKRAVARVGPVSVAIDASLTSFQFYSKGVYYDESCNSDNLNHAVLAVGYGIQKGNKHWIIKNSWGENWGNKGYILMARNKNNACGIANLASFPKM
Put plainly: pKa value determined against cathepsin K from humanized rabbit enzyme. To be noted: Oryctolagus cuniculus.

Assay [3] concerns the target Cathepsin B (Homo sapiens, UniProt P07858). Description: Inhibitory activity against cathepsin B from human.
The target of assay [4] is Procathepsin L (Homo sapiens, UniProt P07711). Description: Inhibitory activity against cathepsin L from human.
Assay [5] deals with Cathepsin S (Homo sapiens, UniProt P25774). Description: Inhibitory activity against cathepsin S from human.
The target of assay [6] is T1, Cathepsin K. Put plainly: Inhibitory activity against cathepsin K from humanized rabbit enzyme. Also on record: species or system Oryctolagus cuniculus.
The target of assay [7] is T1, Cathepsin K. Description: Inhibitory activity against cathepsin K (10 pM) using humanized rabbit enzyme. Also on record: species or system Oryctolagus cuniculus.

What is called IC50 is the concentration that inhibits the measured activity by half. Higher therefore signals a need for much substance.

Cathepsin S, sequence (P25774 whole entry): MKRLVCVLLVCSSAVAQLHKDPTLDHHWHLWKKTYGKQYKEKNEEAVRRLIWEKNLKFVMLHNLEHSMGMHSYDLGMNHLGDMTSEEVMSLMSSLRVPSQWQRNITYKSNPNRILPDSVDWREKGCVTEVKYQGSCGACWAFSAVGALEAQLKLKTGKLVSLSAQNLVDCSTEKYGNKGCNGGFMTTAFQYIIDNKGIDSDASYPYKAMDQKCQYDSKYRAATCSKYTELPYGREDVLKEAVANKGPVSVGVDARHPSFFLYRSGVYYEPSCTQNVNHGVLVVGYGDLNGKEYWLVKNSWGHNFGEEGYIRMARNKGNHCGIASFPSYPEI
Procathepsin L, sequence (P07711 whole entry): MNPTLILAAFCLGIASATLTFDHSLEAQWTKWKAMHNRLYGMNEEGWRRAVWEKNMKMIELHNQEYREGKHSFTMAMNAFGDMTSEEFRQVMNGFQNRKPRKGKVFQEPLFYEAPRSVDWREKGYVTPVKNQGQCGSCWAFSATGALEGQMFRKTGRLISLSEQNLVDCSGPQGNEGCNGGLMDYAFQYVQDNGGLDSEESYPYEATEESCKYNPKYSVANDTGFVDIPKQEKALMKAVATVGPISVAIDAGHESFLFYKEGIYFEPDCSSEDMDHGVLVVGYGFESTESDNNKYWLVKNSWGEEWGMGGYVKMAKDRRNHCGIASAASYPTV

In assay [1], `CC(C)C[C@H](NC(C)c1ccc(Br)cc1)C(=O)NCC#N` (stereo partly drawn) registered an IC50 of 988 nM. The pKa in assay [2] is 6.7.

In the case of `CC(C)CC(NC(c1ccc(-c2ccc(N3CCNCC3)cc2)cc1)C(F)(F)F)C(=O)NCC#N` (stereo not drawn), the IC50 in assay [1] was 4.6 nM; in assay [3], above 10000 nM; in assay [4] it was 68 nM; in assay [5], 902 nM.

On to `N#CCNC(=O)C1(NC(=O)c2ccc(-c3ccc(N4CCNCC4)cc3)cc2)CCCCC1`, for which the IC50 in assay [1] is 0.4 nM; in assay [3], 614 nM; in assay [4] it was 2270 nM; in assay [5] it was above 10000 nM.

`CC(C)C[C@H](NC(c1ccc(Br)cc1)c1ccc(S(C)(=O)=O)cc1)C(=O)NCC#N` (stereo partly drawn) displayed an IC50 in assay [1] of 2.5 nM. In assay [2], this compound displayed a pKa of 4.6.

For `CC(C)C[C@H](NC(c1ccc(Br)cc1)C(F)(F)F)C(=O)NCC#N` (stereo partly drawn), the IC50 in assay [6] came to 0.9 nM; in assay [1], 1.3 nM; in assay [3], 3350 nM; in assay [4], 34 nM; in assay [5] it was 121 nM. In assay [2], this compound came in with a pKa of 1.3.

Take `CC(C)C[C@H](NC(C#N)c1ccc(Br)cc1)C(=O)NCC#N` (stereo partly drawn): inhibition in assay [1] was half-maximal at 30 nM (IC50). This compound displayed a pKa in assay [2] of 0.7.

For the compound `CC(C)C[C@H](N[C@@H](c1ccc(-c2ccc(N3CCNCC3)cc2)cc1)C(F)(F)F)C(=O)NCC#N`, the IC50 was at most 0.005 nM in assay [7], 1110 nM in assay [3], 47 nM in assay [4] and 451 nM in assay [5].

As for `CC(C)C[C@H](NCc1ccc(Br)cc1)C(=O)NCC#N`, half-maximal inhibition in assay [1] (IC50) was put at 802 nM. For the same compound, the pKa in assay [2] came to 6.7.

Take `CC(C)C[C@H](NC(c1ccc(Br)cc1)C(F)(F)C(F)(F)F)C(=O)NCC#N` (stereo partly drawn): in assay [1], half-maximal inhibition (IC50) required 2.4 nM. For the same compound, the pKa in assay [2] stood at 1.8.

As for `N#CCNC(=O)C1(NC(c2ccc(-c3ccc(N4CCNCC4)cc3)cc2)C(F)(F)F)CCCCC1` (stereo not drawn), the IC50 in assay [1] was 5 nM; in assay [3], above 10000 nM; in assay [4] it was above 10000 nM; in assay [5], above 10000 nM.

With `CN1CCN(c2nc(-c3ccc(C(=O)NC4(C(=O)NCC#N)CCCCC4)cc3)cs2)CC1`, the half-maximal inhibitory concentration (IC50) in assay [1] is 0.6 nM; in assay [3], 1050 nM; in assay [4] it was 3900 nM; in assay [5], above 10000 nM.

In assay [1], `CC(C)C[C@@H](C(=O)NCC#N)c1cccc(-c2ccc(N3CCNCC3)cc2)c1` had an IC50 of 11 nM.

For the compound `CC(C)C[C@H](Nc1cscc1-c1ccc(N2CCNCC2)cc1)C(=O)NCC#N`, the IC50 in assay [1] was found to be 1 nM.
